Reference: PubChem BioAssay (NCI)
Where “and” joins values, the source holds several entries; their conditions need not be identical. Equal entries are not always repeated.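 All cell lines were grown in 96-well plates and treated with compound for 48 hours. GI50 is the concentration that inhibits growth by half. Definition used: TGI = concentration required for complete inhibition of growth.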

System: SN12C renal
Test: NCI-60 cell line screen, 48 h

Structure (SMILES)	GI50	TGI
CC(C)(C)C(=O)OCOP(=O)(OCOC(=O)C(C)(C)C)C1CCCN(O)C1=O (centres undefined)	0.334 µM	14.1 µM
COC(=O)C1=C(c2ccc3c(c2)OCO3)O[C@H](c2cc(OC)c(OC)c(OC)c2)[C@H]1COC(C)=O		37.9 µM
COc1ccc(OC)c(NC(=O)C(=O)NNC(=O)c2sc(NNC(C)=O)nc2C)c1		> 100 µM
CCCCc1c(OC)cc(O)c2c1C(=O)c1[nH]c(C(=O)O)c(O)c(=O)c1C2=O		> 100 µM
O=[N+]([O-])c1nccn1CC(O)c1ccc(F)cc1 (centres undefined)		> 100 µM
O=C1c2ccccc2C2(Br)C(=O)c3ccccc3C12 (centres undefined)		> 100 µM
CCCCOC(=O)C1C(c2ccc(Cl)cc2)NC(c2ccc(Cl)cc2)C(C(=O)OCCCC)S1(=O)=O (centres undefined)		> 100 µM
CCOC(=O)Oc1c(OC)cc(C(=O)NC2CCc3cc(OC)c(OC)c(OC)c3-c3ccc(SC)c(=O)cc32)cc1OC (centres undefined)	0.0136 µM	25.2 µM
CC(=O)Nc1ccc(C(=O)NN2C(=O)C(Cl)C2c2ccccc2)cc1 (centres undefined)		> 100 µM
COC(=O)c1cc2c(cc1O)[C@@H](NC(C)=O)CCc1cc(OC)c(OC)c(OC)c1-2	0.0408 µM	> 100 µM
CSc1nc2c(nc(C)c(=O)n2C2OCC(OC(C)=O)C(OC(C)=O)C2OC(C)=O)c(=O)[nH]1 (centres undefined)		> 100 µM
O=S(O)CCCCSSCC(O)C(O)CSSCCCCS(=O)O (centres undefined)		> 100 µM
COc1ccc(C2S/C(=C\c3ccccc3O)C(=O)N2NC(=O)Cc2ccccc2)cc1 (centres undefined)		> 100 µM
CC1OC(n2cc(F)c(=O)[nH]c2=O)C=CC1O (centres undefined)		> 100 µM
C/C(=C\CCc1ccoc1)CC/C=C(\C)CCCC1=CC(=O)OC1	11.2 µM	39.6 µM
C=C(C=O)[C@@H]1C2OC(=O)C(=C)[C@@H]2CC(O)[C@@]1(C)CC (some centres undefined)		32.6 µM
C=C(CCCCC)CN1CCCC1[C@@](C)(O)CC(=O)OCC (some centres undefined)		> 100 µM
O=C1c2ccccc2C(=O)C1(Cl)C1(S(=O)(=O)O)c2ccccc2-c2ccccc21		> 100 µM

System: UO-31 renal
Test: NCI-60 cell line screen, 48 h

Structure (SMILES)	TGI	GI50
O=C(CCCn1ccnc1[N+](=O)[O-])NCCn1cncc1[N+](=O)[O-]	> 100 µM	
Cn1cc(C2=C(c3ccc4ccccc4c3)C(=O)NC2=O)c2ccccc21	> 25 µM	> 12.4 µM
O=C(OCc1ccc2cccc(O)c2n1)N1CCN(C(=O)c2cc3cc(F)ccc3[nH]2)CC1	1.93 µM	0.358 µM
C[As](C)SC1OC(CO)C(O)C1O (centres undefined)	0.555 µM	0.0973 µM
Cn1c(=O)c2c(nc(Nc3cc(=O)[nH]c(=O)[nH]3)n2Cc2ccccc2)n(C)c1=O	> 100 µM	77 µM
COc1ccc2c(c1)CCC1C2CC[C@@]2(C)C1CC1=CC(COC(C)=O)C3C(=O)c4ccccc4C(=O)C3C12 (some centres undefined)	> 100 µM	61.7 µM
C=C(F)C(=O)N1CCN(c2nc(OC[C@@H]3CCCN3C)nc3c2CCN(c2cccc4cccc(Cl)c24)C3)C[C@@H]1CC#N	2.57 µM	1.13 µM
Cc1c2cccnc2c(C)c2c1c1cc(CO)ccc1n2C	10.5 µM	1.41 µM
CC/C(=C(/c1ccc(OCCN(C)C)cc1)c1ccc(OC(=O)CCCCC(=O)c2c(C)[nH]c(/C=C3\N=C(c4ccc[nH]4)C=C3OC)c2C)cc1)c1ccccc1	21.3 µM	2.81 µM
CC[C@]12C=CCN3CC[C@@]4(c5ccc(OC)cc5N(C)[C@H]4[C@@](O)(C(=O)OC)[C@@H]1OC(=O)CCC[P+](c1ccccc1)(c1ccccc1)c1ccccc1)[C@@H]32	26.2 µM and 26.9 µM	8.57 µM and 13.4 µM
CC(=O)OC1Oc2ccccc2-c2oc(=O)c(-c3cc(=O)oc4cc(O)ccc34)cc21 (centres undefined)	58.9 µM	22.2 µM
CS(=O)(=O)N/N=C/CN1C(=O)c2ccccc2C1=O	> 100 µM	
CC(C)(C)C(=O)OCOP(=O)(OCOC(=O)C(C)(C)C)C1CCCN(O)C1=O (centres undefined)	6.41 µM	0.306 µM
COC(=O)C1=C(c2ccc3c(c2)OCO3)O[C@H](c2cc(OC)c(OC)c(OC)c2)[C@H]1COC(C)=O	31.6 µM	
COc1ccc(OC)c(NC(=O)C(=O)NNC(=O)c2sc(NNC(C)=O)nc2C)c1	> 100 µM	
CCCCc1c(OC)cc(O)c2c1C(=O)c1[nH]c(C(=O)O)c(O)c(=O)c1C2=O	13.8 µM	
O=[N+]([O-])c1nccn1CC(O)c1ccc(F)cc1 (centres undefined)	> 100 µM	
O=C1c2ccccc2C2(Br)C(=O)c3ccccc3C12 (centres undefined)	> 100 µM	
CCCCOC(=O)C1C(c2ccc(Cl)cc2)NC(c2ccc(Cl)cc2)C(C(=O)OCCCC)S1(=O)=O (centres undefined)	> 100 µM	
CCOC(=O)Oc1c(OC)cc(C(=O)NC2CCc3cc(OC)c(OC)c(OC)c3-c3ccc(SC)c(=O)cc32)cc1OC (centres undefined)	> 70 µM	
CC(=O)Nc1ccc(C(=O)NN2C(=O)C(Cl)C2c2ccccc2)cc1 (centres undefined)	> 100 µM	
